Measurements reported in ChEMBL document CHEMBL1134620, “Synthesis of potential antidipsotropic isoflavones: inhibitors of the mitochondrial monoamine oxidase-aldehyde dehydrogenase pathway” (J Med Chem, 2001).

Tests used:
[1] = biological target: Aldehyde dehydrogenase, mitochondrial (Mesocricetus auratus); assay: Inhibition of hamster liver aldehyde dehydrogenase ALDH-2
[2] = test system: Monoamine oxidase (Mesocricetus auratus); assay: Inhibition of hamster liver mitochondrial monoamine oxidase MAO
[3] = test system: Aldehyde dehydrogenase, mitochondrial (Mesocricetus auratus); assay: Inhibition of hamster liver aldehyde dehydrogenase ALDH-2; No inhibition uM
[4] = biological target: Monoamine oxidase (Mesocricetus auratus)

Row | Structure (SMILES) | NI [2] | NI [3] | IC50 [4] | other results
1 | O=c1c(-c2ccc(O)cc2)coc2cc(OCCCCCCBr)ccc12 | – | – | – | IC50 [1]: 0.3 µM
2 | CCCCCCOc1ccc(-c2coc3cc(OCCCCCC)ccc3c2=O)cc1 | No inhibition | No inhibition | – | –
3 | COc1cc2ccc(=O)oc2cc1OC [SCOPARONE] | No inhibition | No inhibition | – | –
4 | O=c1c(-c2ccc(O)cc2)coc2cc(OCCCBr)ccc12 | – | – | – | IC50 [1]: 0.26 µM
5 | CCCCCCCCCCCCOc1ccc(-c2coc3cc(OCCCCCCCCCCCC)ccc3c2=O)cc1 | No inhibition | No inhibition | – | –
6 | O=C(O)CCCCCOc1ccc2c(=O)cc(-c3ccc(O)cc3)oc2c1 | – | – | 7 µM | –
7 | O=c1c(-c2ccc(O)cc2)coc2cc(OCCCCCCO)ccc12 | – | – | > 9 µM | –
8 | C=CCCCCOc1ccc(-c2coc3cc(OCCCCC=C)ccc3c2=O)cc1 | No inhibition | No inhibition | – | –
9 | CCOC(=O)CCCCCOc1ccc(-c2coc3cc(OCCCCCC(=O)OCC)ccc3c2=O)cc1 | No inhibition | No inhibition | – | –
10 | O=c1c(-c2ccc(O)cc2)coc2cc(OCCCCCCCCCO)ccc12 | – | – | > 9 µM | –
11 | CCOC(=O)CCCCCOc1ccc2c(=O)c(-c3ccc(O)cc3)coc2c1 | – | – | 5.3 µM | –
12 | CCOC(=O)CCCCOc1ccc(-c2coc3cc(OCCCCC(=O)OCC)ccc3c2=O)cc1 | No inhibition | No inhibition | – | –
13 | O=C(O)CCCCOc1ccc2c(=O)c(-c3ccc(O)cc3)coc2c1 | – | – | 5 µM | –
14 | O=c1c(-c2ccc(O)cc2)coc2cc(OCCCCBr)ccc12 | – | – | – | IC50 [1]: 0.27 µM
15 | O=c1c(-c2ccc(OCCCCCCCCCO)cc2)coc2cc(OCCCCCCCCCO)ccc12 | No inhibition | No inhibition | – | –
16 | O=C(O)CCCCCCCOc1ccc2c(=O)c(-c3ccc(O)cc3)coc2c1 | – | – | 6.5 µM | –
17 | C=CCCCCOc1ccc2c(=O)c(-c3ccc(O)cc3)coc2c1 | – | – | 5 µM | –
18 | NCCCCCCOc1ccc2c(=O)c(-c3ccc(O)cc3)coc2c1 | – | – | >> 9 uM | –

Further lines, with some results ahead:

Row | NI [2] | NI [3] | IC50 [4] | Structure (SMILES) | other results
19 | – | – | >> 9 uM | CCCCCCC(Oc1ccc2c(=O)c(-c3ccc(O)cc3)coc2c1)C(=O)OCC (stereo not given) | –
20 | No inhibition | No inhibition | – | CC(C)Oc1ccc(-c2coc3cc(OC(C)C)ccc3c2=O)cc1 | –
21 | – | – | 0.2 µM | CC(C)Oc1ccc2c(=O)c(-c3ccc(O)cc3)coc2c1 | –
22 | – | – | > 9 µM | CCOC(=O)CCCCOc1ccc2c(=O)c(-c3ccc(O)cc3)coc2c1 | –
23 | – | – | >> 9 uM | CCCCC(Oc1ccc2c(=O)c(-c3ccc(O)cc3)coc2c1)C(=O)OCC (stereo not given) | –
24 | – | – | >> 9 uM | O=C(O)COc1ccc2c(=O)c(-c3ccc(O)cc3)coc2c1 | –
25 | – | – | > 9 µM | NCCCCOc1ccc2c(=O)c(-c3ccc(O)cc3)coc2c1 | –
26 | No inhibition | No inhibition | – | CCOC(=O)C(C)Oc1ccc(-c2coc3cc(OC(C)C(=O)OCC)ccc3c2=O)cc1 (stereo not given) | –
